From the Kinase Knowledgebase extract (Sharma et al. 2016)

Assays:
PIK3CA (human) [1] = molecular target: PIK3CA (human) (UniProt P42336); assay: Inhibition of PIK3CA Kinase Activity
PIK3CA (human) [2] = molecular target: PIK3CA (human) (UniProt P42336); assay: Inhibition of A2780 Cell Proliferation

PIK3CA (human), sequence (P42336 whole entry, looked up): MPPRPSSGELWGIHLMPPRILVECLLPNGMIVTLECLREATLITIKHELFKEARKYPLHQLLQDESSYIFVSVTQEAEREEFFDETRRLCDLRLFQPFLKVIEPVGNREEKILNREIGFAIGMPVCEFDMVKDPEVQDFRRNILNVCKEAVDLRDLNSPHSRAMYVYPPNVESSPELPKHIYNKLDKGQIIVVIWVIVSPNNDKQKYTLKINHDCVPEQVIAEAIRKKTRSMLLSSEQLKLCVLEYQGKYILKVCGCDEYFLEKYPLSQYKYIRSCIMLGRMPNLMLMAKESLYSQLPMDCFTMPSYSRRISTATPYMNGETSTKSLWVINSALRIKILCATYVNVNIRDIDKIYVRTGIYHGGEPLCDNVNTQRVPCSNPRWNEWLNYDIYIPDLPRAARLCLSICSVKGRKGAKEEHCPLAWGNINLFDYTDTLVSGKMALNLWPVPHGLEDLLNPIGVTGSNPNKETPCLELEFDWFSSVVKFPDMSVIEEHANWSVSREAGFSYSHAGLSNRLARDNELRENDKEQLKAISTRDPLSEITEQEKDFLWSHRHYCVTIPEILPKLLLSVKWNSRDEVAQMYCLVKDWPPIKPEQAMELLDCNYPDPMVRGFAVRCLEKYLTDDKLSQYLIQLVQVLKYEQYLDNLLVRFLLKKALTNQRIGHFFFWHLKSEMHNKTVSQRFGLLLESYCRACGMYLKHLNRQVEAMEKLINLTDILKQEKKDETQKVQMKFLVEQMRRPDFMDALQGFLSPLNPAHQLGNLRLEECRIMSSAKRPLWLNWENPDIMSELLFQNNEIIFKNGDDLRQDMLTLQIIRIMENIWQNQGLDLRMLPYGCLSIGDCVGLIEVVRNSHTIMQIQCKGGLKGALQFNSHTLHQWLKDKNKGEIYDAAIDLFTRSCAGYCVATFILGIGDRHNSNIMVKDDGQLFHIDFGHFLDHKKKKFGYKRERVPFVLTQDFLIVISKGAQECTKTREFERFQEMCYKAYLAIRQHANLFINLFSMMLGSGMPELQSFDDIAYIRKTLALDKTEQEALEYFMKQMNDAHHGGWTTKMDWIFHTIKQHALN

| SMILES | IC50 (PIK3CA (human) [1]) [nM] | EC50 (PIK3CA (human) [2]) [nM] |
| --- | --- | --- |
| CCOc1nc(-c2ccc3nc(NC(C)=O)cn3n2)cnc1N | < 1000 | < 10000 |
| CC(=O)Nc1cn2cc(-c3cnc(N)nc3)ccc2n1 | < 1000 | < 25000 |
| Nc1ncc(-c2ccc3nc(NC(=O)[C@H]4CCC(=O)O4)cn3c2)cc1C(F)(F)F | < 1000 |  |
| Nc1ncc(-c2ccc3nc(NC(=O)Cc4ccccn4)cn3c2)cc1C(F)(F)F | < 1000 | < 10000 |
| Nc1ncc(-c2ccc3nc(NC(=O)C4CCN4)cn3n2)cc1C(F)(F)F (configuration not stated) | < 1000 | < 10000 |
| CN(CC(=O)Nc1cn2nc(-c3cnc(N)c(C(F)(F)F)c3)ccc2n1)C(=O)OC(C)(C)C | < 1000 | < 10000 |
| Nc1ncc(-c2ccc3nc(NC(=O)[C@@H]4CCCN4)cn3c2)cc1C(F)(F)F | < 25000 | < 10000 |
| Nc1ncc(-c2ccc3nc(NC(=O)CCCN4CCOCC4)sc3c2)cn1 | < 1000 | < 10000 |
| CC(=O)Nc1ccc(-c2c(NC(C)=O)nc3ccc(-c4cnc(N)c(C(F)(F)F)c4)cn23)cc1 | < 1000 | < 25000 |
| CCN(CC)Cc1cc(-c2ccc3nc(NC(C)=O)cn3c2)cnc1N | < 1000 | < 25000 |
| CC(=O)Nc1nc2ccc(-c3cnc(N)c(C(F)(F)F)c3)cn2c1C#Cc1cccnc1 | < 1000 | < 1000 |
| CC(=O)Nc1cn2cc(-c3cnc(N)c(C(=O)NCCO)n3)ccc2n1 | < 1000 | < 25000 |
| COc1ccc(CC(=O)Nc2cn3cc(-c4cnc(N)c(C(F)(F)F)c4)ccc3n2)cc1 | < 1000 | < 1000 |
| CC(=O)Nc1nc2ccc(-c3cnc(N)c(C(F)(F)F)c3)cn2c1C#Cc1ccc(C)cc1 | < 1000 | < 10000 |
| COC[C@@H]1CCCN1C(=O)Nc1cn2cc(-c3cnc(N)c(C(F)(F)F)c3)ccc2n1 | < 1000 | < 25000 |
| CC(=O)Nc1cn2nc(-c3cnc(N)c(OC(F)F)c3)ccc2n1 | < 1000 | < 1000 |
| COc1cc(-c2ccc3nc(NC(C)=O)cn3c2)c(C)nc1N | ≥ 25000 | < 10000 |
| CC(=O)Nc1cn2cc(-c3cnc(N)c(OC4CCN(C)CC4)n3)ccc2n1 | < 10000 | < 25000 |
| NC(=O)[C@@H]1CCCN1C(=O)Nc1nc2ccc(-c3cnc(N)c(C(F)(F)F)c3)cc2s1 | < 1000 | < 10000 |
| CCN1CCCCC1CCC(=O)Nc1cn2nc(-c3cnc(N)c(C(F)(F)F)c3)ccc2n1 (configuration not stated) | < 1000 | < 1000 |
| Cc1ccc(C2CCCN2C(=O)Nc2cn3cc(-c4cnc(N)c(C(F)(F)F)c4)ccc3n2)s1 (configuration not stated) | < 1000 | < 25000 |
| CON=Cc1cc(-c2ccc3nc(NC(C)=O)cn3c2)cnc1N | < 1000 | < 25000 |
| CCC(=O)Nc1cn2nc(-c3cnc(N)c(C(F)(F)F)c3)ccc2n1 | < 1000 | < 1000 |

| SMILES | IC50 (PIK3CA (human) [1]) [nM] | EC50 (PIK3CA (human) [2]) [nM] |
| --- | --- | --- |
| CC(=O)Nc1cn2cc(-c3cnc(N)c(Oc4ccc(F)cc4)n3)ccc2n1 | < 1000 | < 1000 |
| CC(=O)Nc1cn2nc(-c3cnc(N)cc3C(F)(F)F)ccc2n1 | < 1000 | < 25000 |
| CC(=O)Nc1cn2cc(-c3cnc(N)c(C(F)(F)F)c3)cc(C)c2n1 | ≥ 25000 |  |
| Nc1ncc(-c2ccc3nc(NC(=O)N4CCC[C@H]4CO)cn3c2)cc1C(F)(F)F | < 1000 | < 10000 |
| CC(=O)Nc1cn2nc(-c3cnc(N)c(C(=O)NCCO)c3)ccc2n1 | < 1000 | < 25000 |
| CC(=O)Nc1nc2ccc(-c3cnc(N)c(Br)c3)cn2c1Br | < 1000 | < 10000 |
| CC(=O)Nc1cn2cc(-c3cnc(N)c(-c4ccc(C(F)(F)F)cc4)c3)ccc2n1 | < 1000 | < 1000 |
| CC(=O)Nc1cn2cc(-c3cnc(N)c(S(=O)(=O)N4CCC(Oc5ccc(F)cc5)CC4)c3)ccc2n1 | < 1000 |  |
| COc1ccc(C2CCCN2C(=O)Nc2cn3cc(-c4cnc(N)c(C(F)(F)F)c4)ccc3n2)cc1OC (configuration not stated) | < 1000 |  |
| C/C=C/C(=O)Nc1cn2cc(-c3cnc(N)c(C(F)(F)F)c3)ccc2n1 | < 1000 | < 10000 |
| COCCOc1nc(-c2ccc3nc(NC(=O)C4CCN4)cn3c2)cnc1N (configuration not stated) | < 1000 | < 25000 |
| CC(=O)Nc1cn2cc(-c3cnc(N)c(Oc4ccccc4)n3)ccc2n1 | < 1000 | < 1000 |
| CNC(=O)C1CCN(C(=O)Nc2cn3cc(-c4cnc(N)c(C(F)(F)F)c4)ccc3n2)C1 (configuration not stated) | < 1000 | < 25000 |
| CCN(CC)CCCc1c(NC(C)=O)nc2ccc(-c3cnc(N)c(C(F)(F)F)c3)cn12 | < 10000 |  |
| CC(=O)Nc1cn2nc(-c3cnc(N)c(-c4cccc(C(F)(F)F)c4)c3)ccc2n1 | < 1000 | < 10000 |
| CC(=O)Nc1cn2nc(-c3cnc(N)c(C(=O)NCCNC(=O)OC(C)(C)C)c3)ccc2n1 | < 1000 | < 1000 |
| CC(=O)Nc1cn2cc(-c3cnc(N)c(-c4cccc(F)c4)c3)ccc2n1 | < 1000 | < 10000 |
| CC(=O)Nc1cn2cc(-c3cnc(N)c(-c4ccccc4)c3)ccc2n1 | < 1000 | < 10000 |
| CC(=O)Nc1nc2ccc(-c3ccc(N)nc3)cn2c1Br | < 10000 |  |
| CC(=O)Nc1cn2nc(-c3cnc(N)c(C(=O)NCCNS(C)(=O)=O)c3)ccc2n1 | < 1000 | < 25000 |
| CC(C)C(=O)Nc1cn2cc(-c3cnc(N)c(C(F)(F)F)c3)ccc2n1 |  | < 25000 |
| Nc1ncc(-c2ccc3nc(NC(=O)c4cccc(-c5nn[nH]n5)c4)cn3c2)cc1C(F)(F)F | < 1000 |  |
| CC(=O)Nc1cn2cc(-c3cnc(N)c(F)c3)ccc2n1 | < 1000 | < 25000 |

| SMILES | IC50 (PIK3CA (human) [1]) [nM] | EC50 (PIK3CA (human) [2]) [nM] |
| --- | --- | --- |
| Nc1ncc(-c2ccc3nc(NC(=O)[C@@H]4CCCCN4Cc4ccccc4)cn3c2)cc1C(F)(F)F | < 1000 | < 10000 |
| Cc1cc(C(=O)Nc2cn3cc(-c4cnc(N)c(C(F)(F)F)c4)ccc3n2)no1 | < 1000 | < 1000 |
| CN(C)C1CCN(C(=O)Nc2cn3cc(-c4cnc(N)c(C(F)(F)F)c4)ccc3n2)C1 (configuration not stated) | < 1000 | < 10000 |
| Nc1ncc(-c2ccc3nc(NC(=O)COC4CCNCC4)cn3c2)cc1C(F)(F)F | < 1000 | < 10000 |
| CC(=O)Nc1cn2cc(-c3cnc(N)c(-c4ccccc4N4CCOCC4)c3)ccc2n1 | < 1000 | < 1000 |
| CC(=O)Nc1cn2cc(-c3cnc(N)c(Oc4cccc(F)c4)n3)cc(F)c2n1 | < 1000 |  |
| Nc1ncc(-c2ccc3nc(NC(=O)C4CCC(=O)NC4)cn3c2)cc1C(F)(F)F (configuration not stated) | < 1000 |  |
| CC(=O)Nc1nc2ccc(-c3ccc(NC4CCNCC4)nc3)cc2s1 | < 1000 |  |
| CC(=O)Nc1cn2cc(-c3cnc(N)cc3C(F)(F)F)ccc2n1 | < 10000 |  |
| CC(=O)N1CCCC[C@@H]1C(=O)Nc1cn2cc(-c3cnc(N)c(C(F)(F)F)c3)ccc2n1 | < 10000 |  |
| CCN1CCC(Oc2nc(-c3ccc4nc(NC(C)=O)cn4c3)cnc2N)CC1 |  | < 10000 |
| CC(=O)Nc1nc2ccc(-c3cnc(NC(C)=O)c(C(F)(F)F)c3)cc2s1 | < 1000 |  |
| Nc1ccc(-c2ccc3nc(NC(=O)OCCN4CCCCC4)sc3c2)cn1 | < 1000 |  |
| Nc1ncc(-c2ccc3nc(NC(=O)C4CCCC(=O)N4)cn3c2)cc1C(F)(F)F (configuration not stated) | < 1000 |  |
| Nc1ncc(-c2ccc3nc(NC(=O)[C@@H]4CCC(=O)O4)cn3c2)cc1C(F)(F)F | < 1000 |  |
| CC(C)(C)OC(=O)N1CCC1C(=O)Nc1cn2nc(-c3cnc(N)c(C(F)(F)F)c3)ccc2n1 (configuration not stated) |  | < 25000 |
| Nc1ncc(-c2ccc3nc(NC(=O)[C@@H](O)CCC(=O)O)cn3c2)cc1C(F)(F)F | < 1000 |  |
| Nc1ncc(-c2ccc3nc(NC(=O)N4CCC[C@H]4C(=O)O)cn3c2)cc1C(F)(F)F | < 10000 |  |
| CC(=O)Nc1cn2cc(-c3cnc(N)c(Oc4ccc(N5CCN(C(C)C)CC5)cc4)n3)ccc2n1 | < 1000 |  |
| CC(=O)Nc1cn2cc(-c3cnc(N)nc3N)ccc2n1 | < 10000 |  |
| Nc1ncc(-c2ccc3nc(NC(=O)[C@@H]4CCCCN4)cn3c2)cc1C(F)(F)F |  | < 10000 |
| Nc1ncc(-c2ccc3nc(NC(=O)C4CCC(=O)N4)cn3c2)cc1C(F)(F)F (configuration not stated) | < 1000 |  |
| COCCOc1nc(-c2ccc3nc(NC(C)=O)cn3n2)cnc1N |  | < 10000 |

| SMILES | IC50 (PIK3CA (human) [1]) [nM] | EC50 (PIK3CA (human) [2]) [nM] |
| --- | --- | --- |
| Nc1cc(C(=O)Nc2nc3ccc(-c4cnc(N)c(C(F)(F)F)c4)cc3s2)ccn1 | < 1000 |  |
| CC(=O)Nc1cn2c(-c3cnc(N)c(C(F)(F)F)c3)c(-c3cnc(N)c(C(F)(F)F)c3)ccc2n1 | ≥ 25000 |  |
| CC(=O)Nc1cn2cc(-c3cnc(N)c(OC(F)F)c3)ccc2n1 | < 1000 |  |
| CNC(=O)[C@@H]1CCCN1C(=O)Nc1cn2cc(-c3cnc(N)c(C(F)(F)F)c3)ccc2n1 |  | < 25000 |
| Nc1ncc(-c2ccc3nc(NC(=O)c4ccccc4C(=O)O)cn3c2)cc1C(F)(F)F | < 10000 |  |
| CC(=O)Nc1cn2nc(-c3cnc(N)c(OCC(F)(F)F)n3)ccc2n1 |  | < 10000 |
| NC(=O)[C@@H]1CCCN1C(=O)Nc1cn2cc(-c3cnc(N)c(C(F)(F)F)c3)ccc2n1 |  | < 10000 |
| COc1ccccc1C1CCCN1C(=O)Nc1cn2cc(-c3cnc(N)c(C(F)(F)F)c3)ccc2n1 (configuration not stated) | < 1000 |  |
| Nc1cccc(C(=O)Nc2nc3ccc(-c4cnc(N)c(C(F)(F)F)c4)cc3s2)n1 | < 10000 |  |
| CC(=O)N1CCCC[C@H]1C(=O)Nc1cn2cc(-c3cnc(N)c(C(F)(F)F)c3)ccc2n1 |  | < 25000 |
| CC(=O)Nc1cn2cc(-c3cnc(N)c(OC4CCNCC4)n3)ccc2n1 |  | < 25000 |
| Nc1ncc(-c2ccc3nc(NC(=O)N4CCCC4c4nccs4)cn3c2)cc1C(F)(F)F (configuration not stated) | < 1000 |  |
| Nc1ncc(-c2ccc3nc(NC(=O)N4CCCC4c4ccco4)cn3c2)cc1C(F)(F)F (configuration not stated) | < 1000 |  |
| CC(=O)Nc1cn2cc(-c3cnc(N)c(O[C@@H](C)C(F)(F)F)n3)cc(F)c2n1 | < 1000 |  |
| CC(=O)Nc1cn2nc(-c3cnc(N)c(-c4ccccc4Cl)c3)ccc2n1 | < 1000 |  |
| Nc1ncc(-c2ccc3nc(NC(=O)N4CCCC4Cc4ccccn4)cn3c2)cc1C(F)(F)F (configuration not stated) | < 1000 |  |
| CC(=O)Nc1cn2cc(-c3cnc(N)c(O[C@H](C)C(F)(F)F)n3)cc(F)c2n1 | < 1000 |  |
| N#CN=C(N)NCCCC(=O)Nc1cn2nc(-c3cnc(N)c(C(F)(F)F)c3)ccc2n1 | < 1000 |  |
| CC(=O)Nc1nc2ccc(-c3cnc(N)c(C(F)(F)F)c3)cn2c1C(C)=O | < 10000 |  |
| CC(=O)Nc1nc2ccc(-c3ccc(NC4CCOCC4)nc3)cc2s1 | < 1000 |  |
